Laboratory results as given in ChEMBL document CHEMBL3769359, “Design of Selective PAK1 Inhibitor G-5555: Improving Properties by Employing an Unorthodox Low-pK a Polar Moiety” (ACS Med Chem Lett, 2015).

Key:
[1] = Hepatic clearance in human liver microsomes after 1 hr by LC-MS/MS analysis; type: ADME
[2] = Oral bioavailability in cynomolgus monkey; type: ADME, organism-based, Macaca fascicularis; conditions: in vivo
[3] = Clearance in CD1 mouse blood at 2 mg/kg, iv after 8 hrs by LC/MS/MS; type: ADME, organism-based; conditions: whole blood
[4] = Half life in CD1 mouse blood at 2 mg/kg, iv after 8 hrs by LC/MS/MS; type: ADME, organism-based; conditions: whole blood
[5] = Oral bioavailability in CD1 mouse blood at 25 mg/kg after 8 hrs by LC/MS/MS; type: ADME, organism-based; conditions: whole blood
[6] = AUC (0 to 8 hrs) in CD1 mouse blood at 25 mg/kg, po after 8 hrs by LC/MS/MS; type: ADME, organism-based; set-up: time < 8 hr, dose 25 mg/kg, route oral; conditions: whole blood
[7] = Plasma clearance in cynomolgus monkey; type: ADME, organism-based, Macaca fascicularis

Row | Structure (SMILES) | CLhep predicted [1] [mL/min/kg] | further results
1 | CNc1ncc2cc(-c3ccc(-c4cccc(C)n4)cc3Cl)c(=O)n(C[C@H]3OC[C@H](NC)CO3)c2n1 | 13.8 | –
2 | CNc1ncc2cc(-c3ccc(-c4cccc(C)n4)cc3Cl)c(=O)n(C[C@@H]3CCNCC3(F)F)c2n1 | 17.8 | –
3 | CCNc1ncc2cc(-c3ccc(-c4cncc(C)n4)cc3Cl)c(=O)n(CC3CCNC(=O)C3)c2n1 (centres undefined) | 12.5 | –
4 | CCNc1ncc2cc(-c3ccc(-c4cncc(C)n4)cc3Cl)c(=O)n(C[C@H]3OC[C@H](N)CO3)c2n1 | 9.6 | –
5 | CNc1ncc2cc(-c3ccc(-c4cccc(C)n4)cc3Cl)c(=O)n(CC3COC4(CNC4)OC3)c2n1 | 11.6 | –
6 | CNc1ncc2cc(-c3ccc(-c4cccc(C)n4)cc3Cl)c(=O)n(C[C@H]3OC[C@H](N)CO3)c2n1 | 11.6 | bioavailability [2]: 72%; clearance [3]: 24.2 mL/min/kg; half-life [4]: 53 min; bioavailability [5]: 80%; AUC(0-t) at 8 h [6]: 30 µM·h; clearance [7]: 3.4 mL/min/kg
7 | CCNc1ncc2cc(-c3ccc(-c4cncc(C)n4)cc3Cl)c(=O)n(CCCO)c2n1 | 14.7 | –
8 | CNc1ncc2cc(-c3ccc(-c4cncc(C)n4)cc3Cl)c(=O)n(C[C@H]3CNCCO3)c2n1 | 10.7 | –
